Where two headings read alike, the source gives them in different places.
Assays:
Assay type in all cases: biochemical
kinases [1] = molecular target: kinases (Homo sapiens, UniProt P78368); conditions: CSNK1G2 (CK1gamma2) Z-Lyte SP; Test Conc(μM):ATP Conc(μM) 1:5
kinases [2] = molecular target: kinases (Homo sapiens, UniProt P53671); conditions: LIMK2 FRET-Lantha SP; Test Conc(μM) 1
kinases [3] = molecular target: kinases (Homo sapiens, UniProt Q9P0L2); conditions: MARK1 (MARK) FRET-Z-Lyte SP; Test Conc(μM):ATP Conc(μM) 1:5
kinases [4] = molecular target: kinases (Homo sapiens, UniProt Q9UBF8); conditions: PI4KB FRET-Adapta SP; Test Conc(μM):ATP Conc(μM) 1:5
Chain of kinases (Homo sapiens, UniProt Q9UBF8) (Q9UBF8 whole entry): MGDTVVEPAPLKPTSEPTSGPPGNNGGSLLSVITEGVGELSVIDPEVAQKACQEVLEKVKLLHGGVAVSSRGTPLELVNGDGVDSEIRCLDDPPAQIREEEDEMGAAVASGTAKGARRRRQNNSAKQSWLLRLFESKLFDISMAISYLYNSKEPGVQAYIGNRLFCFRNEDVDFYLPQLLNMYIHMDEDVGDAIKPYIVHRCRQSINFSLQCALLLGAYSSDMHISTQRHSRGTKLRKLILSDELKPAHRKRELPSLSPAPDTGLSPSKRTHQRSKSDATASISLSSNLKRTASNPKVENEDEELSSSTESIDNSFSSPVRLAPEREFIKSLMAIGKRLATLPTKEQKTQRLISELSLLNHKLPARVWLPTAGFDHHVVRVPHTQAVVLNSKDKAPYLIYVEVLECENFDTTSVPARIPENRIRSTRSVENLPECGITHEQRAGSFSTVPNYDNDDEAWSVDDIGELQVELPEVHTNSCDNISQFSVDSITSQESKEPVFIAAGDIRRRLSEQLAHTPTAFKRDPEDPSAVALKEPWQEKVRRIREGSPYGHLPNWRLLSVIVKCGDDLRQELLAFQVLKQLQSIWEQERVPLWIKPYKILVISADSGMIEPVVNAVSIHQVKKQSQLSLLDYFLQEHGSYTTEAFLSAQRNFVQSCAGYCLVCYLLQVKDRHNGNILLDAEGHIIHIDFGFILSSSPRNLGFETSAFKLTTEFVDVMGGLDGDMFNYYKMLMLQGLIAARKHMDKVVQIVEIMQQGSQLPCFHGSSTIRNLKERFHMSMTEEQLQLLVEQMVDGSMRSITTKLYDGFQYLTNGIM

kinases [5] = molecular target: kinases (Homo sapiens, UniProt P54753); conditions: EPHB3 FRET-Z-Lyte SP; Test Conc(μM):ATP Conc(μM) 1:75
Chain of kinases (Homo sapiens, UniProt P54753) (P54753 34-998): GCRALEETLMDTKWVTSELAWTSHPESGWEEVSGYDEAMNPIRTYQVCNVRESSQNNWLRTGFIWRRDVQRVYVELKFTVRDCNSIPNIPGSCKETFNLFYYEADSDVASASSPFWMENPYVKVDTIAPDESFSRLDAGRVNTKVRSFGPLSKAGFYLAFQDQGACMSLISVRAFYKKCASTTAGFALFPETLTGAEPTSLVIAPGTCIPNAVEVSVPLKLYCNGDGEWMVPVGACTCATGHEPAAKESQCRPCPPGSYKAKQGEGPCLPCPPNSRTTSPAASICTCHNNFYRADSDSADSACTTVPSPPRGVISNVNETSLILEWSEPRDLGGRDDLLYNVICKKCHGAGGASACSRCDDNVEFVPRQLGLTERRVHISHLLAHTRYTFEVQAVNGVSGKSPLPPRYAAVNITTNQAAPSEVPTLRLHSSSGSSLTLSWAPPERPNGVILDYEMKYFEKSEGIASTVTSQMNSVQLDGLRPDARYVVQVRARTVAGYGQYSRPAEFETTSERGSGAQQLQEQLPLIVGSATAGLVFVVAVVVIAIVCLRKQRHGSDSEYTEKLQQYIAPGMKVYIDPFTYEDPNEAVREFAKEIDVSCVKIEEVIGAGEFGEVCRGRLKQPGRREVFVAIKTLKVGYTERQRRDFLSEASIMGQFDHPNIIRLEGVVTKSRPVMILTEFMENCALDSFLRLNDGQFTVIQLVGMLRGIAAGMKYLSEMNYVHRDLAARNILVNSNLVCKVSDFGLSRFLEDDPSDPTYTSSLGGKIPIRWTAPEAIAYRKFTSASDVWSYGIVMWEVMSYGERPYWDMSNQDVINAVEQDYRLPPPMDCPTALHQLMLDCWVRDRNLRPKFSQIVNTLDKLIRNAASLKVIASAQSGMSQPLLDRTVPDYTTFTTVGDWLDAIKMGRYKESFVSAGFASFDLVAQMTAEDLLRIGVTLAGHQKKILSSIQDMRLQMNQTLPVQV

kinases [6] = molecular target: kinases (Homo sapiens, UniProt P42345); conditions: FRAP1 (mTOR) *Mn* Z-Lyte SP; Test Conc(μM):ATP Conc(μM) 1:10
kinases [7] = molecular target: kinases (Homo sapiens, UniProt P51617); conditions: IRAK1 FRET-Adapta SP; Test Conc(μM):ATP Conc(μM) 1:25
Chain of kinases (Homo sapiens, UniProt P51617) (P51617 whole entry): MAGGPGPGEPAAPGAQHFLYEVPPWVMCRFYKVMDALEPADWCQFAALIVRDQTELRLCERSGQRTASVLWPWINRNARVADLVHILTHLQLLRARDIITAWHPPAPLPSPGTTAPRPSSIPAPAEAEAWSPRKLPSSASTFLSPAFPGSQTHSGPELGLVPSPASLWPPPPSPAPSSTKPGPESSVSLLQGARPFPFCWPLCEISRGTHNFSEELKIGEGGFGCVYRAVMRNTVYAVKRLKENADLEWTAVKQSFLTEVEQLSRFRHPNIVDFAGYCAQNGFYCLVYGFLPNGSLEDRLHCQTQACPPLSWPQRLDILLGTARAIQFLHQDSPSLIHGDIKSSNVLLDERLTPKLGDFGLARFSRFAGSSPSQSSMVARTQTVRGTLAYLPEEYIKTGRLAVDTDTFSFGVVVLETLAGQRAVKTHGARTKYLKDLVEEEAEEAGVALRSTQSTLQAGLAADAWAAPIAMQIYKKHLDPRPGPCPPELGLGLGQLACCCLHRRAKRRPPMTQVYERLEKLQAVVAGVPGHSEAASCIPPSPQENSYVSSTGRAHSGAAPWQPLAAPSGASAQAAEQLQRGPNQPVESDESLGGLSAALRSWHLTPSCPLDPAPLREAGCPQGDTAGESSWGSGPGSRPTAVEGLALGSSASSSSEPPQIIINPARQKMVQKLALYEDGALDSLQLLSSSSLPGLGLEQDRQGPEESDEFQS

kinases [8] = molecular target: kinases (Homo sapiens, UniProt Q15835); conditions: GRK1 FRET-Lantha SP; Test Conc(μM) 1
kinases [9] = molecular target: kinases (Homo sapiens, UniProt Q8IW41); conditions: MAPKAPK5 (PRAK) FRET-Z-Lyte SP; Test Conc(μM):ATP Conc(μM) 1:10
kinases [10] = molecular target: kinases (Homo sapiens, UniProt Q9HBH9); conditions: MKNK2 (MNK2) FRET-Lantha SP; Test Conc(μM) 1
kinases [11] = molecular target: kinases (Homo sapiens, UniProt O00443); conditions: PIK3C2A FRET-Adapta SP; Test Conc(μM):ATP Conc(μM) 1:25
kinases [12] = molecular target: kinases (Homo sapiens, UniProt Q9Y463); conditions: DYRK1B FRET-Z-Lyte SP; Test Conc(μM):ATP Conc(μM) 1:75
kinases [13] = molecular target: kinases (Homo sapiens, UniProt Q9H2X6); conditions: HIPK2 FRET-Z-Lyte SP; Test Conc(μM):ATP Conc(μM) 1:10
Chain of kinases (Homo sapiens, UniProt Q9H2X6) (Q9H2X6 whole entry): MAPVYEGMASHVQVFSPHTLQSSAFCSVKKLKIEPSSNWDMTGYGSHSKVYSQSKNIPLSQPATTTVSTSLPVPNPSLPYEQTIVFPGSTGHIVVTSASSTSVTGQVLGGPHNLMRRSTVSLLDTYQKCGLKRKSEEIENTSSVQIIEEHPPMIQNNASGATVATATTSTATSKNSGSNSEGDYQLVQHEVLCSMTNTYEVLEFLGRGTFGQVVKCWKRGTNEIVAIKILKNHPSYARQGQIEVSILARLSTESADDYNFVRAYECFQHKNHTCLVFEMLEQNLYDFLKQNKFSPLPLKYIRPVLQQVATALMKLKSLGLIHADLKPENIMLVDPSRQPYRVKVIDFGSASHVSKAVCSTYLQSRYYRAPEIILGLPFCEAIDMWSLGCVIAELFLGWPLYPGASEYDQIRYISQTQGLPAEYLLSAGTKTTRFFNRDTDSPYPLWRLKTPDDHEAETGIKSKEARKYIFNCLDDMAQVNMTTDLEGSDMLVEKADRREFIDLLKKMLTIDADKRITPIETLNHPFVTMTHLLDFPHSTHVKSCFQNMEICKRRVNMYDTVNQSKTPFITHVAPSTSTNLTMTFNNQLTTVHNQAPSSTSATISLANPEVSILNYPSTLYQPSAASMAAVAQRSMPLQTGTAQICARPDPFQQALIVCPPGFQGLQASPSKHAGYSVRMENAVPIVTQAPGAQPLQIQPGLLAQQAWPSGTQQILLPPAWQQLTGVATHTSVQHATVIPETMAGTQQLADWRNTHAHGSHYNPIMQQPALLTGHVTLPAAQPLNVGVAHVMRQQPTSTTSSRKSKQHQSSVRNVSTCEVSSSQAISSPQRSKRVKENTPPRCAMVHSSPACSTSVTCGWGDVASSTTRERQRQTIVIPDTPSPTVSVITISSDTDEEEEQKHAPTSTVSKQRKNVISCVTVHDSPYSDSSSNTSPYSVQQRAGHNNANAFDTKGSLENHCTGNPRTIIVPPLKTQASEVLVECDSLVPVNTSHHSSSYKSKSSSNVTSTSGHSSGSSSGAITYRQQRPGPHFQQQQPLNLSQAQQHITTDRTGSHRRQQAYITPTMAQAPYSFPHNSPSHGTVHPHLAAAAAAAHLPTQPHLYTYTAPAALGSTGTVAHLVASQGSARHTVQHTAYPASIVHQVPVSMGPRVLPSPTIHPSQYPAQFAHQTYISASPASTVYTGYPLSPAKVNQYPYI

kinases [14] = molecular target: kinases (Homo sapiens, UniProt Q14164); conditions: IKBKE (IKK epsilon) Z-Lyte SP; Test Conc(μM):ATP Conc(μM) 1:10
kinases [15] = molecular target: kinases (Homo sapiens, UniProt Q8WTQ7); conditions: GRK7 FRET-Z-Lyte SP; Test Conc(μM):ATP Conc(μM) 1:10
kinases [16] = molecular target: kinases (Homo sapiens, UniProt Q13705); conditions: ACVR2B FRET-Lantha SP; Test Conc(μM) 1
kinases [17] = molecular target: kinases (Homo sapiens, UniProt O15264); conditions: MAPK13 (p38 delta) Z-Lyte SP; Test Conc(μM):ATP Conc(μM) 1:10
kinases [18] = molecular target: kinases (Homo sapiens, UniProt P10721); conditions: KIT *Mn* FRET-Z-Lyte SP
kinases [19] = molecular target: kinases (Homo sapiens, UniProt Q9UKI8); conditions: TLK1 FRET-Lantha SP; Test Conc(μM) 1
kinases [20] = molecular target: kinases (Homo sapiens, UniProt Q9UF33); conditions: EPHA6 FRET-Lantha SP; Test Conc(μM) 1
kinases [21] = molecular target: kinases (Homo sapiens, UniProt Q76MJ5); conditions: ERN2 FRET-Lantha SP; Test Conc(μM) 1
kinases [22] = molecular target: kinases (Homo sapiens, UniProt P24723); conditions: PRKCH (PKC eta) Z-Lyte SP; Test Conc(μM):ATP Conc(μM) 1:25
kinases [23] = molecular target: kinases (Homo sapiens, UniProt P36896); conditions: ACVR1B (ALK4) *Mn* Z-Lyte SP; Test Conc(μM):ATP Conc(μM) 1:5
Chain of kinases (Homo sapiens, UniProt P36896) (P36896 24-505): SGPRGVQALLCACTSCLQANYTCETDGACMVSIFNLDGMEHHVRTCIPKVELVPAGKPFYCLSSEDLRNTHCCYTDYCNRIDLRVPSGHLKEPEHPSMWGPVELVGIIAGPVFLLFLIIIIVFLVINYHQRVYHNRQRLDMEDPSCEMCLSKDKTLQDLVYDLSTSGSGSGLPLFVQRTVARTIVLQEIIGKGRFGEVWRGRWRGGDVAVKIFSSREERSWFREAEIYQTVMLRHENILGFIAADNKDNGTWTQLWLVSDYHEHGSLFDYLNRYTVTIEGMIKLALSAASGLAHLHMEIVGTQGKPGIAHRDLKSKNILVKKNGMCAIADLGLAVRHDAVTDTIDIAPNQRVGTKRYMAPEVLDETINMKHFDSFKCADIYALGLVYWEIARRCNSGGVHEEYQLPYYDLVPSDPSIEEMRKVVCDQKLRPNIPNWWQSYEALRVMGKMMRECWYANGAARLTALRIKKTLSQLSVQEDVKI

kinases [24] = molecular target: kinases (Homo sapiens, UniProt Q8NI60); conditions: ADCK3 FRET-Lantha SP; Test Conc(μM) 1
kinases [25] = molecular target: kinases (Homo sapiens, UniProt O43781); conditions: DYRK3 FRET-Z-Lyte SP; ATP Conc(μM):Test Conc(μM) 1:5
kinases [26] = molecular target: kinases (Homo sapiens, UniProt Q6PHR2); conditions: ULK3 FRET-Lantha SP; Test Conc(μM) 1
kinases [27] = molecular target: kinases (Homo sapiens, UniProt Q9H1R3); conditions: MYLK2 FRET-Z-lyte SP
kinases [28] = molecular target: kinases (Homo sapiens, UniProt Q06418); conditions: TYRO3 (RSE) FRET-Z-Lyte SP; Test Conc(μM):ATP Conc(μM) 1:25
kinases [29] = molecular target: kinases (Homo sapiens, UniProt Q07912); conditions: TNK2 (ACK) FRET-Lantha SP; Test Conc(μM) 1
[30] = Test Conc(μM):ATP Conc(μM) 1:300
[31] = Test Conc(μM):ATP Conc(μM) 0.25

Chain of kinases (Homo sapiens, UniProt P53671) (P53671 whole entry): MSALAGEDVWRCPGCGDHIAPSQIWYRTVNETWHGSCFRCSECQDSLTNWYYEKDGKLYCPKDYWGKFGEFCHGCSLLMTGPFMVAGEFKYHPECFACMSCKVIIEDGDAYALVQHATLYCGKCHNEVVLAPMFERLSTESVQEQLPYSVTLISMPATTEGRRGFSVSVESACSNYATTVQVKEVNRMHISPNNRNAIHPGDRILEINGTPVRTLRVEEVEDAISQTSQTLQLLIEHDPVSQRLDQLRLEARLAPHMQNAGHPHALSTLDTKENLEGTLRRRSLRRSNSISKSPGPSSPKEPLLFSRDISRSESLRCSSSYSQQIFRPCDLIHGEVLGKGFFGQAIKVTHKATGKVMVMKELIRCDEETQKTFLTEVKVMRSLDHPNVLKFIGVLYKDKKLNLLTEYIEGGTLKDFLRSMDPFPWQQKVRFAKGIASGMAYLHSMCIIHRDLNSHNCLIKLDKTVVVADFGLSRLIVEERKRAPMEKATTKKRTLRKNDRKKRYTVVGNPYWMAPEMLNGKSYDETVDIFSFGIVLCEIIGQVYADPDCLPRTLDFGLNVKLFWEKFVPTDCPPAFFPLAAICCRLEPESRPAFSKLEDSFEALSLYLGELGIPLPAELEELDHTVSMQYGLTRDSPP

SMILES	Mean Inhib (%) (kinases [1])	Mean Inhib (%) (kinases [2])	Mean Inhib (%) (kinases [3])	Mean Inhib (%) (kinases [4])	Mean Inhib (%) (kinases [5])	Mean Inhib (%) (kinases [6])	Mean Inhib (%) (kinases [7])	Mean Inhib (%) (kinases [8])	Mean Inhib (%) (kinases [9])	Mean Inhib (%) (kinases [10])	Mean Inhib (%) (kinases [11])	Mean Inhib (%) (kinases [12])	Mean Inhib (%) (kinases [13])	Mean Inhib (%) (kinases [14])	Mean Inhib (%) (kinases [15])	Mean Inhib (%) (kinases [16])	Mean Inhib (%) (kinases [17])	Mean Inhib (%) (kinases [19])	Mean Inhib (%) (kinases [20])	Mean Inhib (%) (kinases [21])	further results
Cc1ccc(NC(=O)c2ccnc(N3CCOCC3)c2)cc1Nc1ccnc(N2CC(C)OC(C)C2)n1 (stereo not shown) [compound 3]	3.9	0.5	16.9	−9.0	−0.5	0.7	11.2	−3.1	−1.3	2.2	1.7	3.0	−3.2	−3.5	4.6	−2.1	4.7	−4.3	1.9	−3.5	Mean Inhib (%) (kinases [18]; [30]): 0.0%; Mean Inhib (%) (kinases [22]): 9.3%; Mean Inhib (%) (kinases [23]): 6.8%; Mean Inhib (%) (kinases [24]): −1.6%; Mean Inhib (%) (kinases [25]): 0.4%; Mean Inhib (%) (kinases [26]): −2.1%; Mean Inhib (%) (kinases [27]; [30]): 7.4%; Mean Inhib (%) (kinases [28]): 9.3%; Mean Inhib (%) (kinases [29]): 0.2%
Cc1cc(Oc2ccnc(Nc3ccc(S(N)(=O)=O)cc3)c2)c(-c2ccccn2)nc1C [compound 65]	5.9	22.2	5.7	0.5	1.6	−8.8	5.1	3.7	1.9	2.7	8.7	−5.0	−0.8	−2.3	8.3	95.6	3.7	−4.5	54.2	7.1	Mean Inhib (%) (kinases [18]; [31]): 8.8%; Mean Inhib (%) (kinases [22]): 0.8%; Mean Inhib (%) (kinases [23]): 97.8%; Mean Inhib (%) (kinases [24]): −3.0%; Mean Inhib (%) (kinases [25]): −1.2%; Mean Inhib (%) (kinases [26]): −2.4%; Mean Inhib (%) (kinases [27]; [31]): −7.8%; Mean Inhib (%) (kinases [28]): 1.4%; Mean Inhib (%) (kinases [29]): 6.5%

— patent US20220187282A1, “CARDIOMYOCYTE PROLIFERATION” (The Council of the Queensland Institute of Medical Research, priority 2019, published 2022)
